19 compounds from US5574173A, “Tricyclic derivatives, compositions and methods of use” (Schering Corporation, priority 1993, dated 1996) can be followed below.

Each structure is given as a SMILES string.

Assay [1] has as its system LPS-Induced TNF-α Production From the Murine Cell Line WEHI-265. Kind of assay: In vitro inhibition of LPS-induced TNF-α production from the murine cell line WEHI-265. As to conditions: Mus musculus, WEHI-265 cells, LPS from E. coli 0111:B4, 20-24 h incubation. Format: cell-based. As for the experimental part:
This test procedure is a standard test used to determine anti-TNF-α activity and to evaluate the usefulness of said compounds for counteracting the biological effects of TNF-α.
1. In Vitro Study: Inhibition of LPS-Induced TNF-α
Production From the Murine Cell Line WEHI-265
1) Cells (obtained from cell cultures containing≤10^6 cells/ml) are suspended at 0.2×10^6 cells/ml in complete medium (RPMI1640, with 10% FCS, 10^-5 M 2-ME, 2 mM glutan-fine and 10 mM HEPES buffer) and plated in CoStar 24 well plates (1.0 ml/well).
2) Compounds are dissolved in the appropriate vehicle at 400 times the concentration to be tested, and 5 μl of compound is added to the wells.
3) LPS (from E. coli 0111:B4) is diluted to 6 μg/ml and 1.0 ml is added to wells.
4) Plates are incubated 20-24 hours in 37° CO2 incubator.
5) Supernatant fluids are collected and analyzed for TNF content as described in J. Immunol., 142:3884.

The next assay concerns LPS-Induced Serum TNF. Kind of assay: In vivo inhibition of LPS-induced serum TNF in mice. The arrangement: species or system mice (C57BI/6J). The settings on record: Mus musculus, 1.5 h; 25 mg/kg oral or i.p. one hour before LPS (50 μg i.p.); bled 90 min after LPS; ELISA; values may have a wide margin of error. As for the experimental part:
In addition to the in vitro test described above, the following in vivo test was also performed on several of the compounds of the present invention.
1. In Vivo Study: Inhibition of LPS-Induced Serum TNF
Mice (C57BI/6J males, 6-8 weeks of age) are dosed with the indicated compound (dissolved in CMC suspension vehicle; compounds are given orally or i.p. one hour before LPS challenge).
Mice are bled 90 min after LPS challenge.
4) Sera are analyzed for TNF content by ELISA as described in J. Immunol.

Assay [2] relates to LPS/Galactosamine-Induced Lethality. Kind of assay: In vivo inhibition of LPS/galactosamine-induced lethality in mice. Also noted: species or system mice (C57BI/6J). The settings on record: 25 mg/kg oral or i.p. one hour before LPS (100 ng) and d-galactosamine (8 mg) i.p.; survival at 24 hours. As for the experimental part: This test procedure is a standard test used to determine activity against septic shock.
3. In Vivo Study: Inhibition of LPS/Galactosamine-Induced Lethality.
1) Mice (C57BI/6J males, 6-8 weeks of age) are dosed with the indicated compound (dissolved in CMC suspension vehicle; compounds are given orally or i.p. one hour before challenge with LPS and d-galactosamine).
2) Mice are challenged i.p. with a mixture of LPS (from E. coli 0111:B4; 100 ng) and d-galactosamine (8 mg).
3) Survival is determined 24 hours after challenge. See procedure published in J. Exp. Med. 165:657 (1987)

On to `C=CCC(CNC)C1c2ccccc2COc2ccccc21` (stereo not shown) [Compound IA, N-methyl-2-[6,11-dihydro-dibenzo[b,e]oxepin-11-yl]-pent-4-en-1-amine], for which at 10 µM the inhibition in assay [1] was 54%. The compound also showed an inhibition in vivo at 25 mg/kg with LPS-Induced Serum TNF of 44%.

Consider `CCOC(CN(C)C)C1c2ccccc2CCc2ccccc21` (stereo not drawn) [Compound IB, β-ethoxy-10,11-dihydro-N, N-dimethyl-5 H-dibenzo[a,d]cycloheptene-5-ethanamine], for which the inhibition at 10 µM in assay [1] was 35%. Besides, the inhibition in vivo at 25 mg/kg in the assay on LPS-Induced Serum TNF amounted to 25%. Besides, the “# DEAD/TOTAL AT 25 MG/KG” value in assay [2] is given as 8/10.

In turn, `C=CC(CCN(C)C)C1c2ccccc2CCc2ccccc21` (stereo not shown) [Compound IC, 3-(10,11-dihydro-5H-dibenzo[a,d]cyclohepten-5-yl)-N,N-dimethyl-4-pentenamine] yielded an inhibition at 10 µM in assay [1] of 46%.

For the compound `CCOC(C(=O)N(C)C)C1c2ccccc2CCc2ccccc21` (stereo not shown) [Compound IE, 2-ethoxy-2-[10,11-dihydro-5H-dibenzo[a,d]cyclohepten-5-yl]-N,N-dimethyl-acetamide], in assay [1], the inhibition at 10 µM was 49%. The same compound displayed an inhibition in vivo at 25 mg/kg in the assay with LPS-Induced Serum TNF of 37%. In addition, in assay [2], the “# DEAD/TOTAL AT 25 MG/KG” value is reported as 10/10.

In assay [1], `CNCCC1c2ccccc2CCc2ccccc21` [Compound K1] yielded an inhibition at 10 µM of 15%. The compound also yielded an inhibition in vivo at 25 mg/kg with LPS-Induced Serum TNF of 71%. In addition, the “# DEAD/TOTAL AT 25 MG/KG” value in assay [2] is on record as 1/10.

As to `CCCC(CN(C)C)C1c2ccccc2COc2ccccc21` (stereo not shown) [Compound K2], the inhibition at 10 µM in assay [1] was determined as 54%. The same compound had an inhibition in vivo at 25 mg/kg in the assay on LPS-Induced Serum TNF of 40%. Further, the “# DEAD/TOTAL AT 25 MG/KG” value in assay [2] is 7/10.

Take `CCCC(CNC)C1c2ccccc2COc2ccccc21` (stereo not shown) [Compound K3, N-methyl-2-[6,11-dihydro-dibenzo[b,e]oxepin-11-yl]-pentanamine]: in assay [1], the inhibition at 10 µM stood at 73%. For the same compound, in the assay on LPS-Induced Serum TNF, the inhibition in vivo at 25 mg/kg turned out to be 27%.

In the case of `CCCC(CN(C)C(=O)OCC)C1c2ccccc2COc2ccccc21` (stereo not shown) [Compound K4], 10 µM produced 48% inhibition in assay [1].

In assay [1], `CCCC(CN(C)C(C)=O)C1c2ccccc2COc2ccccc21` (stereo not shown) [Compound K5] displayed an inhibition at 10 µM of 46%. The “# DEAD/TOTAL AT 25 MG/KG” value in assay [2] is recorded as 10/10.

`CCCC(CN(C)C)C1c2ccccc2CCc2ccc(Cl)cc21` (stereo not shown) [Compound K6] registered an inhibition at 10 µM in assay [1] of 64%.

`CCCC(CNC)C1c2ccccc2CCc2ccc(Cl)cc21` (stereo not shown) [Compound K7] gave an inhibition at 10 µM in assay [1] of 39%. In the assay on LPS-Induced Serum TNF, this compound had an inhibition in vivo at 25 mg/kg of 58%.

In assay [1], `CN(C)CC(O)C1c2ccccc2CCc2ccccc21` (stereo not shown) [IF] showed an inhibition at 10 µM of 4%. The compound also returned an inhibition in vivo at 25 mg/kg in the assay on LPS-Induced Serum TNF of 24%. Moreover, the “# DEAD/TOTAL AT 25 MG/KG” value in assay [2] is 8/10.

Turning to `CCOC(CNC)C1c2ccccc2CCc2ccccc21` (stereo not shown) [IG], in assay [1], the inhibition at 10 µM worked out at 35%. At 25 mg/kg the inhibition in vivo in the assay with LPS-Induced Serum TNF was 51%. Besides, in assay [2], the “# DEAD/TOTAL AT 25 MG/KG” value was 7/9.

On to `C=CCC(CN(C)C)C1c2ccccc2COc2ccccc21` (stereo not shown) [IH], for which, in assay [1], 10 µM produced 23% inhibition. Also, at 25 mg/kg the inhibition in vivo in the assay on LPS-Induced Serum TNF was 30%.

Take `C=CCC(CN(C)C(C)=O)C1c2ccccc2COc2ccccc21` (stereo not shown) [IJ]: in assay [1], testing at 10 µM gave an inhibition of 34%.

As for `C=CCC(CN(C)C(=O)OCC)C1c2ccccc2COc2ccccc21` (stereo not shown) [IK], the inhibition at 10 µM in assay [1] worked out at 31%.

`C=CCC(CN(C)C(C)=O)C1c2ccccc2CCc2ccc(Cl)cc21` (stereo not shown) [IL]: in assay [1], the inhibition at 10 µM was determined as 49%. In the assay on LPS-Induced Serum TNF, this compound returned an inhibition in vivo at 25 mg/kg of 42%.

In assay [1], `C=CCC(CN(C)C)C1c2ccccc2CCc2ccc(Cl)cc21` (stereo not shown) [IM] yielded an inhibition at 10 µM of 50%.

As for `C=CCC(CNC)C1c2ccccc2CCc2ccc(Cl)cc21` (stereo not shown) [IN], in assay [1], the inhibition at 10 µM came out at 28%.
